According to publication doi:10.1101/2023.03.24.534094v2 (biorxiv, 2023):
Read-outs that look alike come from different tables or passages of the source.

Tests used:
[1] = biological target: SIK2 (Homo sapiens, UniProt Q9H0K1); test: NanoBRET target engagement; type: cell-based; conditions: intact mode, HEK293T, 37 °C, 2 h, tracer displacement
[2] = biological target: SIK3 (Homo sapiens, UniProt Q9Y2K2); test: NanoBRET target engagement; type: cell-based; conditions: intact mode, HEK293T, 37 °C, 2 h, tracer displacement
Chain of SIK3 (Q9Y2K2 whole entry): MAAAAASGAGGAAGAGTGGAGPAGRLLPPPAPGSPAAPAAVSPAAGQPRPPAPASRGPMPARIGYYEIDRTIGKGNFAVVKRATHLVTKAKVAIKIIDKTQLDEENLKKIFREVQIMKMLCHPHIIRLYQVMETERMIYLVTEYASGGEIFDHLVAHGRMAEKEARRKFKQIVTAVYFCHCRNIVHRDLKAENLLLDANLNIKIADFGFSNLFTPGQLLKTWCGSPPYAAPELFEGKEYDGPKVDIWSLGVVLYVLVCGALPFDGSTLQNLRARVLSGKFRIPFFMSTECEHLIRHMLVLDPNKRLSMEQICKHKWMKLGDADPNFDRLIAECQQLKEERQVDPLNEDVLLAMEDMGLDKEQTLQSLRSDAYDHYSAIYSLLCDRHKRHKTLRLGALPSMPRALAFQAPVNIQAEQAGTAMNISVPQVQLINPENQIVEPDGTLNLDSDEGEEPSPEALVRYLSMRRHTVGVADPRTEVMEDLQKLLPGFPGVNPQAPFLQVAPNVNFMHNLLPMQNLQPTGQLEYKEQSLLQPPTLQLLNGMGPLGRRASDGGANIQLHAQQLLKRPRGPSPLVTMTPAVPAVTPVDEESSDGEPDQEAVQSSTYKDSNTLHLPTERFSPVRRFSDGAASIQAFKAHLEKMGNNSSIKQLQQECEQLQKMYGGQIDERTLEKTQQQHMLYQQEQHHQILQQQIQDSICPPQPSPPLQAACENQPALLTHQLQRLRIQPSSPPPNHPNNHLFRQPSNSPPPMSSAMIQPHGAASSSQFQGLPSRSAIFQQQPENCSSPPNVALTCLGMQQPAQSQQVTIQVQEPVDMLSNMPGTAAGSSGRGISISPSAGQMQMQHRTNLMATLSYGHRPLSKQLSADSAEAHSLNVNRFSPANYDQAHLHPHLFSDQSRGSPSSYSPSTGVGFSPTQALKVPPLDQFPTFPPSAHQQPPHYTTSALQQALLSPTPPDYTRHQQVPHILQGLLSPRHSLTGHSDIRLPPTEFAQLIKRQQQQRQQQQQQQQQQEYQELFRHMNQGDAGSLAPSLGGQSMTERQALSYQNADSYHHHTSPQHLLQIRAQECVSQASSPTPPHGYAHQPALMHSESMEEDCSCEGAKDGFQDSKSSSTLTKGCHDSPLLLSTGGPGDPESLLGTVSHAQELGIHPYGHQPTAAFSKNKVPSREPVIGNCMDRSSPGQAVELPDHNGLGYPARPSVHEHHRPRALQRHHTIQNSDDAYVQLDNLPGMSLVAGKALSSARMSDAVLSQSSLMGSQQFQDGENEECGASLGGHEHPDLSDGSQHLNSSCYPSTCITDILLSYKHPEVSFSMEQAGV

[3] = biological target: SIK1 (Homo sapiens, UniProt P57059); test: NanoBRET target engagement; type: biochemical; conditions: lysed mode, HEK293T, tracer displacement
[4] = biological target: CaMK1d (Homo sapiens, UniProt Q8IU85); test: biochemical
Chain of CaMK1d (Q8IU85 whole entry): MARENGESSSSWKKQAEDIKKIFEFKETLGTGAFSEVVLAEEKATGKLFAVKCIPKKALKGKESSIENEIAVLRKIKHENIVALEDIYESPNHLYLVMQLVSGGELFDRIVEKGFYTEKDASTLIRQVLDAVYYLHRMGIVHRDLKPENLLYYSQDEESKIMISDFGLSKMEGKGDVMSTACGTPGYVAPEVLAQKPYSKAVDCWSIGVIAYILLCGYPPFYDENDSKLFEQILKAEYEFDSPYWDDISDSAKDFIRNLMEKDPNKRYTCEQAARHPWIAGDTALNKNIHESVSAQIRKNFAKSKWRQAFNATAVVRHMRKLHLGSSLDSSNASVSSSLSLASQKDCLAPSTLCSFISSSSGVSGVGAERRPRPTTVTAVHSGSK

[5] = biological target: EpHA2 (Homo sapiens, UniProt P29317); test: biochemical
Chain of EpHA2 (P29317 whole entry): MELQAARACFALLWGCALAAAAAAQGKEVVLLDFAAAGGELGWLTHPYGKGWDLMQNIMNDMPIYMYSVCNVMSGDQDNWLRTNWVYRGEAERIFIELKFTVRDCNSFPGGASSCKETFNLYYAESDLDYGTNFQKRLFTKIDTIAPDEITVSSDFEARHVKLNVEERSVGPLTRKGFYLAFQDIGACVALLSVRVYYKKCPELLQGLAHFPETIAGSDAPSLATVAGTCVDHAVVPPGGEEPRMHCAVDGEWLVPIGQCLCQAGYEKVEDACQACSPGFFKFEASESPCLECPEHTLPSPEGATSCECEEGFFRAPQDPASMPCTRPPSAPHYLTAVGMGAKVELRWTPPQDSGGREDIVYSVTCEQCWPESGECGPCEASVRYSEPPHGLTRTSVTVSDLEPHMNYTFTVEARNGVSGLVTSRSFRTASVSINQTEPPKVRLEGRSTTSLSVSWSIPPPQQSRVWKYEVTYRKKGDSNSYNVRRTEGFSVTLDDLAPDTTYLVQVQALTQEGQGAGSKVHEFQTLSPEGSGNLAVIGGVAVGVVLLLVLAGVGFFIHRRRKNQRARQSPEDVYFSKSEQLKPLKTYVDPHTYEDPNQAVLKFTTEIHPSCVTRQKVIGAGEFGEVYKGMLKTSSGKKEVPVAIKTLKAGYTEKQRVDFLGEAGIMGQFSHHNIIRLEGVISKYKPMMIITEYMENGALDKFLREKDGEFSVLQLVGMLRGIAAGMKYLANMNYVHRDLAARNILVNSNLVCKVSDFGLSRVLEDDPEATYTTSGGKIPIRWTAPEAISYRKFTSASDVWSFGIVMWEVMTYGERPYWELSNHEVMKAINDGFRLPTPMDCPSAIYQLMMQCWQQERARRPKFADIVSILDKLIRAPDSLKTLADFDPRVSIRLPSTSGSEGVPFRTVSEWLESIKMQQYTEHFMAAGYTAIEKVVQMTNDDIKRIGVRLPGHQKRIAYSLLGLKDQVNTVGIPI

[6] = biological target: FGFR1 (Homo sapiens, UniProt P11362); test: biochemical
Chain of FGFR1 (P11362 whole entry): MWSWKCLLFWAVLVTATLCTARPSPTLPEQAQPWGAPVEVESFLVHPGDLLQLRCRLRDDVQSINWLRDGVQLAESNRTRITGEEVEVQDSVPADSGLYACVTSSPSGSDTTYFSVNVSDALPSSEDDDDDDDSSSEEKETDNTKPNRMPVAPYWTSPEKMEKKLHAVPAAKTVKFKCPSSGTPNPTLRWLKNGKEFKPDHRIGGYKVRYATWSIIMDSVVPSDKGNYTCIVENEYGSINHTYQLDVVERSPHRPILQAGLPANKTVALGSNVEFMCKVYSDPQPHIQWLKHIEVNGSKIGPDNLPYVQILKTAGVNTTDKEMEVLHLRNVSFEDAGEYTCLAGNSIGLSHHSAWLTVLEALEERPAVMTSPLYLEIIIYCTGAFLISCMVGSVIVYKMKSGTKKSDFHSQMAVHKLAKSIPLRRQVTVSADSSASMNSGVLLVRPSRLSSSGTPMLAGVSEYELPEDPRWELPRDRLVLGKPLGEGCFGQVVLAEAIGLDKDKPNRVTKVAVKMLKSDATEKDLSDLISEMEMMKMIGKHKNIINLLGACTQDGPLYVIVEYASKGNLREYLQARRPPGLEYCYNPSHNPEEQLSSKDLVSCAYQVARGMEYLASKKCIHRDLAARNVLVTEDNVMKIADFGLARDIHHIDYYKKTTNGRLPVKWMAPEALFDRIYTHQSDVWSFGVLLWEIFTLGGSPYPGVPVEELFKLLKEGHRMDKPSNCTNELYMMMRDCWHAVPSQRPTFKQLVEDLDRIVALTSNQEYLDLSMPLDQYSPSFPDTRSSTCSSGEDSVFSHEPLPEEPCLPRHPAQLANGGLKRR

[7] = biological target: LOK (Homo sapiens, UniProt O94804); test: biochemical
[8] = biological target: T1, MAP2K4 (Homo sapiens, UniProt P45985); test: biochemical
T1 sequence (P45985 1-399): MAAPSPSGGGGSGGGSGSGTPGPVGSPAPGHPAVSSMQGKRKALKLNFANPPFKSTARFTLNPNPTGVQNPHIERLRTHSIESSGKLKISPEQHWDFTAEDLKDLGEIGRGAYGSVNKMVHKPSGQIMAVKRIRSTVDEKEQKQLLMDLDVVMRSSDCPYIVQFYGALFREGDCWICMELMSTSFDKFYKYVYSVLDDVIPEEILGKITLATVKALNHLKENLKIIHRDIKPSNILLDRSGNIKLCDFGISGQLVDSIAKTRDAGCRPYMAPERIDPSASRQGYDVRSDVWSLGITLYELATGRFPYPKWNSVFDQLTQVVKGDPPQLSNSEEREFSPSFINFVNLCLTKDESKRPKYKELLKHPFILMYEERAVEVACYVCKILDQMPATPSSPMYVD

[9] = biological target: SRC (Homo sapiens, UniProt P12931); test: biochemical
[10] = biological target: T2, MST1 (Homo sapiens, UniProt Q13043); test: biochemical; conditions: for ΔTm at 10 µM: read-out: dTm MST1
T2 sequence (Q13043 1-487): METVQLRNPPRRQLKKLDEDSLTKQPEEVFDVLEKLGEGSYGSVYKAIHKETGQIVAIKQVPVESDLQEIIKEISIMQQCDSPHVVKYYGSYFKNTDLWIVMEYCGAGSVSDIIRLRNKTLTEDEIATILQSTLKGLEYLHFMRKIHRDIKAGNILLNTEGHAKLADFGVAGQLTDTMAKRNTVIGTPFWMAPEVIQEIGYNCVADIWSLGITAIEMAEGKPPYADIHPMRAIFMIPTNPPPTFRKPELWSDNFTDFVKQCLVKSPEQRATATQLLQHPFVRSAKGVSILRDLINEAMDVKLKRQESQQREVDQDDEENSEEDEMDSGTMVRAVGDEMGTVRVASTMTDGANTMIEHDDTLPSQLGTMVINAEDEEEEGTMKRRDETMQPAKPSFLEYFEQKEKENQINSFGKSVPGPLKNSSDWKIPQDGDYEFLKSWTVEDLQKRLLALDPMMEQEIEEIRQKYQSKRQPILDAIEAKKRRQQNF

[11] = biological target: T3, MST2 (Homo sapiens, UniProt Q13188); test: biochemical; conditions: for ΔTm at 10 µM: read-out: dTm MST2
T3 sequence (Q13188 1-491): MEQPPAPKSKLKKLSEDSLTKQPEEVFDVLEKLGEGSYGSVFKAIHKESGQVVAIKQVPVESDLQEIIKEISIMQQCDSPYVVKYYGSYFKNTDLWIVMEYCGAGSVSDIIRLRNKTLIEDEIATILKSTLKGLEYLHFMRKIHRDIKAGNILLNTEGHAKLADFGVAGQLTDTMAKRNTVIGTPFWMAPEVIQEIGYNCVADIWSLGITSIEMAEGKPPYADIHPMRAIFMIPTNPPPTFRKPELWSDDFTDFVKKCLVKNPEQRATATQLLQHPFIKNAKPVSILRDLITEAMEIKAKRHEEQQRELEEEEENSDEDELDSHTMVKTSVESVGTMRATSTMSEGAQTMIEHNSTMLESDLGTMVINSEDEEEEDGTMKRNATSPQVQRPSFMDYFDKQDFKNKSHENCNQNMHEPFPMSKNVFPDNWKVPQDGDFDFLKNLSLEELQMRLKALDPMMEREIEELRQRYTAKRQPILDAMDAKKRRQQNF

[12] = biological target: MST4 (Homo sapiens, UniProt Q9P289); test: biochemical; conditions: for ΔTm at 10 µM: read-out: dTm MST4
Chain of MST4 (Q9P289 whole entry): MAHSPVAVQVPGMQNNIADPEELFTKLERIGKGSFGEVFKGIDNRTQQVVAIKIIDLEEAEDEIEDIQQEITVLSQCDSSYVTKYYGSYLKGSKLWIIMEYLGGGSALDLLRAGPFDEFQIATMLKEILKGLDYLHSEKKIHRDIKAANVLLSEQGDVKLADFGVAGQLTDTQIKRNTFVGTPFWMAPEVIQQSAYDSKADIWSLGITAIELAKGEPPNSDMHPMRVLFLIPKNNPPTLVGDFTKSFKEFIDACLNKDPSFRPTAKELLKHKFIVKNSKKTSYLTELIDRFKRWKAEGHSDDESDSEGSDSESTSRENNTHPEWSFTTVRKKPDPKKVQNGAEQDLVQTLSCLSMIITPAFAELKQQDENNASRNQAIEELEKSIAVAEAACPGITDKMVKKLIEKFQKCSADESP

Chain of SIK2 (Q9H0K1 whole entry): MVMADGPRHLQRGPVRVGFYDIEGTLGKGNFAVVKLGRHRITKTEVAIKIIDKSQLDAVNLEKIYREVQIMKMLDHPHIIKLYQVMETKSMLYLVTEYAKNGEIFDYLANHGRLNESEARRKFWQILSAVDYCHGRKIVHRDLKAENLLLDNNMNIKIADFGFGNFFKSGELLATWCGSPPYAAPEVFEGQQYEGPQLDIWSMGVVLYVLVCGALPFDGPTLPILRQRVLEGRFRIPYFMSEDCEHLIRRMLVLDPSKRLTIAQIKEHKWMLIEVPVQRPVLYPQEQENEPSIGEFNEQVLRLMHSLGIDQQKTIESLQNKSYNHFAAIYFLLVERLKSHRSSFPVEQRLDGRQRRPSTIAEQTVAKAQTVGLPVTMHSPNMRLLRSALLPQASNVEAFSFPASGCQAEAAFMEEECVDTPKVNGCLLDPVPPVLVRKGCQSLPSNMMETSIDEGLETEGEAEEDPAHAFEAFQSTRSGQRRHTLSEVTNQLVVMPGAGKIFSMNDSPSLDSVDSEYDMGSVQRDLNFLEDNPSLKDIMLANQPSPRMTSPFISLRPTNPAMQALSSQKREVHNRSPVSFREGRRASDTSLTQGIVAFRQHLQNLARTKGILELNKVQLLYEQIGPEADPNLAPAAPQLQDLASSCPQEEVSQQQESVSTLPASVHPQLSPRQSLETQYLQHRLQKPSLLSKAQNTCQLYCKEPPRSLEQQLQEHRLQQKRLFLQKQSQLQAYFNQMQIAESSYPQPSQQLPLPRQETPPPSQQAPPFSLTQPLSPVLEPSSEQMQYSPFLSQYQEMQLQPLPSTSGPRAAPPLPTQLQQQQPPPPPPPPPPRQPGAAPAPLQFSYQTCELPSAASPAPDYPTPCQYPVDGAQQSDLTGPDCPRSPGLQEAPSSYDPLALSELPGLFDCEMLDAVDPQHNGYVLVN

IC50 [1]	IC50 [2]	IC50 [3]	ΔTm at 10 µM [10]	ΔTm at 10 µM [11]	ΔTm at 10 µM [12]	SMILES	also measured
6100 ± 100 nM	2500 ± 100 nM	1000 ± 400 nM	0.9 °C	0.8 °C	0.4 °C	CNc1ncc2cc(-c3cc(C(F)(F)F)ccc3Cl)c(=O)n(CCCCN)c2n1 [compound 9, 8-(4-Aminobutyl)-6-(2-chloro-5-(trifluoromethyl)phenyl)-2-(methylamino)pyrido[2,3-d]pyrimidin-7(8H)-one]	ΔTm at 10 µM ([4]; read-out: dTm 9): 2.3 °C; ΔTm at 10 µM ([5]; read-out: dTm 9): 4.8 °C; ΔTm at 10 µM ([6]; read-out: dTm 9): 1.2 °C; ΔTm at 10 µM ([7]; read-out: dTm 9): 1.6 °C; ΔTm at 10 µM ([8]; read-out: dTm 9): 2.3 °C; ΔTm at 10 µM ([9]; read-out: dTm 9): 0 °C
89 ± 2 nM	18 ± 2 nM	72 ± 11 nM	0.9 °C	0.6 °C	0.9 °C	CNc1ncc2cc(-c3cc(F)ccc3F)c(=O)n(CCCCN)c2n1 [compound 5, 8-(4-Aminobutyl)-6-(2,5-difluorophenyl)-2-(methylamino)pyrido[2,3-d]pyrimidin-7(8H)-one]	
2700 ± 100 nM	1200 ± 100 nM	429 ± 117 nM	1.6 °C	1.4 °C	1.5 °C	CNc1ncc2cc(-c3cc(Br)ccc3Br)c(=O)n(CCCCN)c2n1 [compound 11, 8-(4-Aminobutyl)-6-(2,5-dibromophenyl)-2-(methylamino)pyrido[2,3-d]pyrimidin-7(8H)-one]	ΔTm at 10 µM ([4]; read-out: dTm 11): 2.3 °C; ΔTm at 10 µM ([5]; read-out: dTm 11): 6.4 °C; ΔTm at 10 µM ([6]; read-out: dTm 11): 3 °C; ΔTm at 10 µM ([7]; read-out: dTm 11): 3.6 °C; ΔTm at 10 µM ([8]; read-out: dTm 11): 3 °C; ΔTm at 10 µM ([9]; read-out: dTm 11): 0.4 °C
665 ± 40 nM	113 ± 95 nM	277 ± 123 nM	1.6 °C	1.4 °C	2 °C	CNc1ncc2cc(-c3cc(Cl)ccc3Cl)c(=O)n(CCCCN)c2n1 [compound 8, 8-(4-Aminobutyl)-6-(2,5-dichlorophenyl)-2-(methylamino)pyrido[2,3-d]pyrimidin-7(8H)-one]	ΔTm at 10 µM ([4]; read-out: dTm 8): 2.4 °C; ΔTm at 10 µM ([5]; read-out: dTm 8): 7.1 °C; ΔTm at 10 µM ([6]; read-out: dTm 8): 3.3 °C; ΔTm at 10 µM ([7]; read-out: dTm 8): 2.5 °C; ΔTm at 10 µM ([8]; read-out: dTm 8): 2.7 °C; ΔTm at 10 µM ([9]; read-out: dTm 8): 0.6 °C
74 ± 2 nM	25 ± 3 nM	20 ± 7 nM	1.9 °C	2.2 °C	2.6 °C	CNc1ncc2cc(-c3ccccc3Cl)c(=O)n(CCCCN)c2n1 [compound 4, 8-(4-Aminobutyl)-6-(2-chlorophenyl)-2-(methylamino)pyrido[2,3-d]pyrimidin-7(8H)-one]	
4400 ± 100 nM	1000 ± 300 nM	2400 ± 1100 nM	1.7 °C	1.5 °C	0.6 °C	CNc1ncc2cc(-c3cc(Br)ccc3Cl)c(=O)n(C[C@H]3OC[C@H](N)CO3)c2n1 [compound 7, 8-(((2r,5r)-5-Amino-1,3-dioxan-2-yl)methyl)-6-(5-bromo-2-chlorophenyl)-2-(methylamino)pyrido[2,3-d]pyrimidin-7(8H)-one]	
31 ± 1 nM	4 ± 0.1 nM	6 ± 2 nM	2.8 °C	5.2 °C	7.6 °C	CNc1ncc2cc(-c3cc(F)c(-c4cccc(C)n4)cc3F)c(=O)n(CCCCN)c2n1 [compound 12, 8-(4-Aminobutyl)-6-(2,5-difluoro-4-(6-methylpyridin-2-yl)phenyl)-2-(methylamino)pyrido[2,3-d]pyrimidin-7(8H)-one]	ΔTm at 10 µM ([4]; read-out: dTm 12): 3.1 °C; ΔTm at 10 µM ([5]; read-out: dTm 12): 3.9 °C; ΔTm at 10 µM ([6]; read-out: dTm 12): 0.6 °C; ΔTm at 10 µM ([7]; read-out: dTm 12): -0.4 °C; ΔTm at 10 µM ([8]; read-out: dTm 12): 5.4 °C; ΔTm at 10 µM ([9]; read-out: dTm 12): 1.2 °C
1100 ± 100 nM	290 ± 42 nM	228 ± 142 nM	1.5 °C	1.4 °C	1.8 °C	CNc1ncc2cc(-c3cc(Cl)ccc3Br)c(=O)n(CCCCN)c2n1 [compound 10, 8-(4-Aminobutyl)-6-(2-bromo-5-chlorophenyl)-2-(methylamino)pyrido[2,3-d]pyrimidin-7(8H)-one]	ΔTm at 10 µM ([4]; read-out: dTm 10): 2 °C; ΔTm at 10 µM ([5]; read-out: dTm 10): 7.4 °C; ΔTm at 10 µM ([6]; read-out: dTm 10): 2.9 °C; ΔTm at 10 µM ([7]; read-out: dTm 10): 3.5 °C; ΔTm at 10 µM ([8]; read-out: dTm 10): 3 °C; ΔTm at 10 µM ([9]; read-out: dTm 10): 0.6 °C
1400 ± 100 nM	352 ± 11 nM	239 ± 46 nM	1.9 °C	2.5 °C	2.2 °C	CNc1ncc2cc(-c3cc(Br)ccc3Cl)c(=O)n(CCCCN)c2n1 [compound 6, 8-(4-Aminobutyl)-6-(5-bromo-2-chlorophenyl)-2-(methylamino)pyrido[2,3-d]pyrimidin-7(8H)-one]	
						CNc1ncc2cc(-c3ccc(-c4cccc(C)n4)cc3Cl)c(=O)n(CC3OCC(N)CO3)c2n1 (stereo not drawn) [compound 2, G-5555]	dTm MST1 ([10]; 10 µM, binder): 4.2 °C; dTm MST2 ([11]; 10 µM, binder): 5.0 °C; dTm MST4 ([12]; 10 µM, binder): 6.4 °C
